According to patent US20240116985A1, “STAPLED PEPTIDES AND METHODS THEREOF” (priority 2020, published 2024):
Where two headings read alike, the source gives them in different places.

What was measured:
[1] = biological target: T1, full-length beta-Catenin (Uniprot ID P35222) (Homo sapiens, UniProt P35222); test: Fluorescence polarization IC50 (beta-catenin / 5FAM-TCF4 10-53 competition); assay type: binding
T1 construct: 10 nM full-length beta-Catenin (Uniprot ID P35222)
T1 sequence (P35222 1-781): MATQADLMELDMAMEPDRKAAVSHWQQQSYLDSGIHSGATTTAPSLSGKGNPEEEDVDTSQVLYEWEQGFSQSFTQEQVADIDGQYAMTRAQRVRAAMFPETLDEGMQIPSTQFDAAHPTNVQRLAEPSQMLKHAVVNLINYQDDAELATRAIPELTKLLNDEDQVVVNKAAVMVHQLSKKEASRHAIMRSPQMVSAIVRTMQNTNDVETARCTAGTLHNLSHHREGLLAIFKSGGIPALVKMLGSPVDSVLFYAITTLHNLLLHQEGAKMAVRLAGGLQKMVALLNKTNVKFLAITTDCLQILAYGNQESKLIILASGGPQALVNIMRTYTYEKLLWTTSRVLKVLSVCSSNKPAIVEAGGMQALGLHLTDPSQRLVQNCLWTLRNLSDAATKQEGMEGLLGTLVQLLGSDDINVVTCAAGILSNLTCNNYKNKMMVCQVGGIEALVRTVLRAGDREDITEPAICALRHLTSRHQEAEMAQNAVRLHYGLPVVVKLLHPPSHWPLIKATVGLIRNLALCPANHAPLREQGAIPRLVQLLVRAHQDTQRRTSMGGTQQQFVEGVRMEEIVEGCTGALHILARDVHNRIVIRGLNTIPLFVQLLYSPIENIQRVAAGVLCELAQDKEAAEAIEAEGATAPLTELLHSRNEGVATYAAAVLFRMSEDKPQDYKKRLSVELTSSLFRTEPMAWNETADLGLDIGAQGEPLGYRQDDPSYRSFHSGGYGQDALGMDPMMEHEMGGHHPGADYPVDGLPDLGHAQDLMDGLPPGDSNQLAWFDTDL

[2] = CHI Log D procedure; assay type: physicochemical; conditions: for chromatographic logD: pH 7.4, CHI Log D; for CHI Log D: pH 7.4
[3] = biological target: T2, beta-catenin/TCF4 engagement (Homo sapiens, UniProt P35222); test: Nano-BRET target engagement assay (B-cat-Halo & TCF4-Luc in HEK293 cells); assay type: cell-based
T2 construct: expressed in transfected cells; host or cells: HEK293
T2 sequence (P35222 1-781): T1 sequence (P35222 1-781)

[4] = absolute IC50, read-out: NanoBRET Abs IC50
[5] = fluorescence polarization, beta-catenin, read-out: FP EC50

COCCOCCC(=O)NCCCC[C@H](NC(=O)[C@H](CCC(N)=O)NC(=O)[C@H](Cc1csc2ccccc12)NC(=O)[C@H](Cc1ccsc1)NC(=O)[C@]12CCN(C1)C(=O)OCCCC=CCCCC1(CCCC=CC[C@]3(CCCN3C(C)=O)C(=O)N[C@@H](CC(=O)O)C(=O)N[C@@H](CC(C)(C)C)C(=O)N1)C(=O)N[C@@H](CC(=O)O)C(=O)N[C@@H](CC(=O)O)C(=O)N[C@@H](C)C(=O)N[C@@H](C)C(=O)N[C@@H](Cc1ccccc1)C(=O)N[C@@H](CC(N)=O)C(=O)N2)C(N)=O (stereo partly drawn) [I-911, Ac-PL3-Asp-Npg-B5-Asp-Asp-Ala-Ala-Phe-Asn-PyrS2-3Thi-BztA-Gln-[mPEG2]Lys-NH2]
IC50 ([1]; read-out: beta-Catenin FP IC50): 12 nM | chromatographic logD [2]: 1.82 | IC50 ([3]; read-out: NanoBRET Abs IC50): 22.9 µM

CC(=O)N1CCC[C@]12CC=CCCCC1(CCCC=CCCCOC(=O)N3CC[C@@](C(=O)N[C@@H](Cc4ccsc4)C(=O)N[C@@H](Cc4csc5ccccc45)C(=O)N[C@@H](CCC(N)=O)C(N)=O)(C3)NC(=O)[C@H](CC(C)C)NC(=O)[C@H](Cc3ccccc3)NC(=O)[C@H](C)NC(=O)[C@H](C)NC(=O)[C@H](CC(N)=O)NC(=O)[C@H](CC(=O)O)NC1=O)NC(=O)[C@H](CC(C)(C)C)NC(=O)[C@H](CC(=O)O)NC2=O (stereo partly drawn) [I-856, Ac-PL3-Asp-Npg-B5-Asp-Asn-Ala-Ala-Phe-Leu-PyrS2-3Thi-BztA-Gln-NH2]
IC50 ([1]; read-out: beta-Catenin FP IC50): 17 nM | chromatographic logD [2]: 2.45 | IC50 ([3]; read-out: NanoBRET Abs IC50): 6.8 µM

CC(=O)N1CCC[C@]12CC=CCCCC1(CCCC=CCCCCCC[C@@](C)(C(=O)N[C@@H](Cc3cccc(Cl)c3)C(=O)N[C@@H](Cc3csc4ccccc34)C(=O)N[C@@H](CCC(N)=O)C(N)=O)NC(=O)[C@H](CC(N)=O)NC(=O)[C@H](Cc3ccccc3)NC(=O)[C@H](C)NC(=O)[C@H](C)NC(=O)[C@H](CN(CC(=O)O)CC(F)(F)F)NC(=O)[C@H](CC(=O)O)NC1=O)NC(=O)[C@H](CC(C)(C)C)NC(=O)[C@H](CC(=O)O)NC2=O (stereo partly drawn) [I-933, Ac-PL3-Asp-Npg-B5-Asp-TfeGA-Ala-Ala-Phe-Asn-S8-3C1F-BztA-Gln-NH2]
IC50 ([1]; read-out: beta-Catenin FP IC50): 168 nM | chromatographic logD [2]: 3.03 | IC50 ([3]; read-out: NanoBRET Abs IC50): 22.2 µM | IC50 ([3]; read-out: NanoBRET IC50): > 20 µM

CC(=O)N1CCC[C@]12CC=CCCCC1(CCCC=CCCCCCC[C@@](C)(C(=O)N[C@@H](Cc3ccccc3Br)C(=O)N[C@@H](Cc3csc4ccccc34)C(=O)N[C@@H](CCC(N)=O)C(N)=O)NC(=O)[C@H](CC(N)=O)NC(=O)[C@H](Cc3ccccc3)NC(=O)[C@H](C)NC(=O)[C@H](C)NC(=O)[C@H](CN(CC(=O)O)CC(F)(F)F)NC(=O)[C@H](CC(=O)O)NC1=O)NC(=O)[C@H](CC(C)(C)C)NC(=O)[C@H](CC(=O)O)NC2=O (stereo partly drawn) [I-932, Ac-PL3-Asp-Npg-B5-Asp-TfeGA-Ala-Ala-Phe-Asn-S8-2BrF-BztA-Gln-NH2]
IC50 ([1]; read-out: beta-Catenin FP IC50): 35 nM | chromatographic logD [2]: 2.77 | IC50 [3, 4]: 11.4 µM

CC[C@H](C)[C@@H]1NC(=O)[C@H](CC(=O)O)NC(=O)[C@]2(CC=CCCCC3(CCCC=CCCCCCC[C@@](C)(C(=O)N[C@@H](Cc4ccccc4)C(=O)N[C@@H](Cc4csc5ccccc45)C(=O)N[C@@H](Cc4c[nH]cn4)C(N)=O)NC(=O)[C@H](CC(N)=O)NC(=O)[C@H](Cc4ccccc4)NC(=O)[C@H](C)NC(=O)[C@H](C)NC(=O)[C@H](CC(=O)O)NC(=O)[C@H](CC(=O)O)NC3=O)NC1=O)CCCN2C(C)=O (stereo partly drawn) [I-470, Ac-PL3-Asp-Ile-B5-Asp-Asp-Ala-Ala-Phe-Asn-S8-Phe-BztA-His-NH2]
IC50 ([1]; fluorescence polarization, read-out: beta-Catenin FP IC50): 11 nM | IC50 ([1]; read-out: FP EC50): 11 nM | CHI Log D [2]: 2.394 | inhibition at 10 µM ([3]; HEK293, @ 10 uM, read-out: NanoBRET % inh @ 10 uM): 14.1%

CC(=O)N1CCC[C@]12CC=CCCCC1(CCCC=CCCCOC(=O)N3CC[C@@](C(=O)N[C@@H](Cc4cccc(Cl)c4)C(=O)N[C@@H](Cc4csc5ccccc45)C(=O)N[C@@H](CCC(N)=O)C(N)=O)(C3)NC(=O)[C@H](CC(N)=O)NC(=O)[C@H](Cc3ccccc3)NC(=O)[C@H](C)NC(=O)[C@H](C)NC(=O)[C@H](CN(CC(=O)O)CC(F)(F)F)NC(=O)[C@H](CC(=O)O)NC1=O)NC(=O)[C@H](CC(C)(C)C)NC(=O)[C@H](CC(=O)O)NC2=O (stereo partly drawn) [I-925, Ac-PL3-Asp-Npg-B5-Asp-TfeGA-Ala-Ala-Phe-Asn-PyrS2-3C1F-BztA-Gln-NH2]
IC50 [1, 5]: 21 nM | IC50 ([1]; read-out: beta-Catenin FP IC50): 21 nM | CHI Log D [2]: 2.344 | IC50 ([3]; read-out: NanoBRET Abs IC50): 20 µM

CC(=O)N1CCC[C@]12CC=CCCCC1(CCCC=CCCCCOC(=O)N3CC[C@@](C(=O)N[C@@H](Cc4ccsc4)C(=O)N[C@@H](Cc4csc5ccccc45)C(=O)N[C@@H](CC(N)=O)C(=O)N[C@H](C)C(N)=O)(C3)NC(=O)[C@H](CC(N)=O)NC(=O)[C@H](Cc3ccccc3)NC(=O)[C@H](C)NC(=O)[C@H](C)NC(=O)[C@H](CC(=O)O)NC(=O)[C@H](CC(=O)O)NC1=O)NC(=O)[C@H](CC(C)(C)C)NC(=O)[C@H](CC(=O)O)NC2=O (stereo partly drawn) [I-834, Ac-PL3-Asp-Npg-B5-Asp-Asp-Ala-Ala-Phe-Asn-PyrS3-3Thi-BztA-Asn-dAla-NH2]
IC50 [1, 5]: 14 nM | IC50 ([1]; read-out: beta-Catenin FP IC50): 14 nM | CHI Log D [2]: 2.08 | IC50 ([3]; read-out: NanoBRET Abs IC50): 33.7 µM

CC(=O)N1CCC[C@]12CC=CCCCC1(CCCC=CCCCOC(=O)N3CC[C@@](C(=O)N[C@@H](Cc4ccsc4)C(=O)N[C@@H](Cc4csc5ccccc45)C(=O)N[C@@H](CCC(N)=O)C(N)=O)(C3)NC(=O)[C@H](Cc3ccccc3)NC(=O)[C@H](Cc3ccccc3)NC(=O)[C@H](C)NC(=O)[C@H](C)NC(=O)[C@H](CN(CC(=O)O)CC(F)(F)F)NC(=O)[C@H](CC(=O)O)NC1=O)NC(=O)[C@H](CC(C)(C)C)NC(=O)[C@H](CC(=O)O)NC2=O (stereo partly drawn) [I-848, Ac-PL3-Asp-Npg-B5-Asp-TfeGA-Ala-Ala-Phe-Phe-PyrS2-3Thi-BztA-Gln-NH2]
IC50 ([1]; read-out: beta-Catenin FP IC50): 13 nM | chromatographic logD [2]: 2.46 | IC50 [3, 4]: 7 µM

C#CCOCCOCCC(=O)NCCCC[C@H](NC(=O)[C@H](CCC(N)=O)NC(=O)[C@H](Cc1csc2ccccc12)NC(=O)[C@H](Cc1ccsc1)NC(=O)[C@]12CCN(C1)C(=O)OCCCC=CCCCC1(CCCC=CC[C@]3(CCCN3C(C)=O)C(=O)N[C@@H](CC(=O)O)C(=O)N[C@@H](CC(C)(C)C)C(=O)N1)C(=O)N[C@@H](CC(=O)O)C(=O)N[C@@H](CC(=O)O)C(=O)N[C@@H](C)C(=O)N[C@@H](C)C(=O)N[C@@H](Cc1ccccc1)C(=O)N[C@@H](CC(N)=O)C(=O)N2)C(N)=O (stereo partly drawn) [I-936, Ac-PL3-Asp-Npg-B5-Asp-Asp-Ala-Ala-Phe-Asn-PyrS2-3Thi-BztA-Gln-[PropynPEG2]Lys-NH2]
IC50 ([1]; read-out: beta-Catenin FP IC50): 7 nM | chromatographic logD [2]: 1.94 | IC50 ([3]; read-out: NanoBRET Abs IC50): 22.2 µM

CC(=O)N1CCC[C@]12CC=CCCCC1(CCCC=CCCCOC(=O)N3CC[C@@](C(=O)N[C@@H](Cc4ccccc4C(F)(F)F)C(=O)N[C@@H](Cc4csc5ccccc45)C(=O)N[C@@H](CCC(N)=O)C(N)=O)(C3)NC(=O)[C@H](CC(N)=O)NC(=O)[C@H](Cc3ccccc3)NC(=O)[C@H](C)NC(=O)[C@H](C)NC(=O)[C@H](CN(CC(=O)O)CC(F)(F)F)NC(=O)[C@H](CC(=O)O)NC1=O)NC(=O)[C@H](CC(C)(C)C)NC(=O)[C@H](CC(=O)O)NC2=O (stereo partly drawn) [I-928, Ac-PL3-Asp-Npg-B5-Asp-TfeGA-Ala-Ala-Phe-Asn-PyrS2-2F3MeF-BztA-Gln-NH2]
IC50 [1, 5]: 21 nM | IC50 ([1]; read-out: beta-Catenin FP IC50): 21 nM | CHI Log D [2]: 2.38 | IC50 ([3]; read-out: NanoBRET Abs IC50): 6.1 µM | IC50 ([3]; read-out: NanoBRET IC50): 5 µM

CC(=O)N1CCC[C@]12CC=CCCCC1(CCCC=CCCCCCC[C@@](C)(C(=O)N[C@@H](Cc3ccccc3Cl)C(=O)N[C@@H](Cc3csc4ccccc34)C(=O)N[C@@H](CCC(N)=O)C(N)=O)NC(=O)[C@H](CC(N)=O)NC(=O)[C@H](Cc3ccccc3)NC(=O)[C@H](C)NC(=O)[C@H](C)NC(=O)[C@H](CN(CC(=O)O)CC(F)(F)F)NC(=O)[C@H](CC(=O)O)NC1=O)NC(=O)[C@H](CC(C)(C)C)NC(=O)[C@H](CC(=O)O)NC2=O (stereo partly drawn) [I-929, Ac-PL3-Asp-Npg-B5-Asp-TfeGA-Ala-Ala-Phe-Asn-S8-2C1F-BztA-Gln-NH2]
IC50 ([1]; read-out: beta-Catenin FP IC50): 23 nM | chromatographic logD [2]: 2.74 | IC50 ([3]; read-out: NanoBRET Abs IC50): 10.3 µM | IC50 ([3]; read-out: NanoBRET IC50): 7 µM

CC(=O)N1CCC[C@]12CC=CCCCC1(CCCC=CCCCOC(=O)N3CC[C@@](C(=O)N[C@@H](Cc4ccccc4Cl)C(=O)N[C@@H](Cc4csc5ccccc45)C(=O)N[C@@H](C(N)=O)[C@H](C)O)(C3)NC(=O)[C@H]([C@@H](C)O)NC(=O)[C@H](Cc3ccccc3)NC(=O)[C@H](C)NC(=O)[C@H](C)NC(=O)[C@H](CCC(=O)O)NC(=O)[C@H](CC(=O)O)NC1=O)NC(=O)[C@H](CC(C)(C)C)NC(=O)[C@H](CC(=O)O)NC2=O (stereo partly drawn) [I-1037, Ac-PL3-Asp-Npg-B5-Asp-Glu-Ala-Ala-Phe-Thr-PyrS2-2C1F-BztA-dThr-NH2]
IC50 ([1]; read-out: beta-Catenin FP IC50): 30 nM | chromatographic logD [2]: 2.52 | IC50 ([3]; read-out: NanoBRET Abs IC50): 4.4 µM
